Among the data in BindingDB's records for doi:10.1021/jm00129a004 (Bristol Myers Squibb, 1989) are IC50 values, retold here.

This assay deals with HMG-CoA reductase (Rattus norvegicus). The assay can be described thus: In vitro inhibition of rat liver microsomal HMG-CoA reductase activity.

The structures appear in SMILES notation.

With `Cn1nnnc1C(/C=C/[C@H]1C[C@H](O)CC(=O)O1)=C(c1ccc(F)cc1)c1ccc(F)cc1`, half-maximal inhibition (IC50) was put at 19 nM.

`Cn1nnnc1C(/C=C/[C@@H]1C[C@@H](O)CC(=O)O1)=C(c1ccc(F)cc1)c1ccc(F)cc1` [6-[4,4-Bis-(4-fluoro-phenyl)-3-(1-methyl-1H-tetrazol-5-yl)-buta-1,3-dienyl]-4-hydroxy-tetrahydro-pyran-2-one (BMY 22089)] returned an IC50 of 43 nM.
